Experimental data reported in US8759579B2, “Cyclobutyl sulfones as notch sparing gamma secretase inhibitors” (Merck Sharp & Dohme Corp., priority 2008, dated 2014).
Read-outs that look alike come from different tables or passages of the source.

Columns and labels:
Format in all cases: cell-based
[1] = tested on: Aβ40 peptides generated from SH-SY5Y cells expressing amyloid β protein (SP4CT cells); assay: APP processing AlphaLisa assay, secreted Aβ40; settings: average of at least >4 replicates, read-out: AB40 IC50 AVG
Protocol: (§1) APP Processing (Assay Quantitates Secreted Aβ Analytes from Cell Lines):
(§2) The effect of compounds on the abundance of Aβ40 and Aβ42 peptides generated from SH-SY5Y cells expressing amyloid β protein (SP4CT cells) was determined by an AlphaLisa™ assay. Analogous to an ELISA assay, generation of signal in this AlphaLisa™ assay requires “donor” and “acceptor” beads to be brought in close proximity by specific antibody recognition of either Aβ40 or Aβ42 peptides. The assay was accomplished by removing media from compound-treated SP4CT cells to two different microplates, followed by the addition of donor beads conjugated with streptavidin binding a biotinylated anti-amyloid β monoclonal antibody (clone 4G8). Acceptor beads directly conjugated with anti-Aβ40 monoclonal antibody (G210) were added to one microplate and anti-Aβ42 monoclonal antibody (12F4) acceptor beads were added to the other. Abundance of Aβ40 and Aβ42 was directly proportional to the luminescent signal generated following excitation of donor beads by laser light.

[2] = tested on: gamma secretase-dependent cleavage of the Notch protein (NotchΔE) in HeLa cells; assay: Notch processing split-luciferase assay (Notch intracellular domain release); settings: average of at least >4 replicates, read-out: Notch IC50 AVG
Text: Notch Processing: (Assay Quantitates Notch Intracellular Domain Release in Cell Lines):
A “split-luciferase” assay is used to measure inhibition of gamma secretase-dependent cleavage of the Notch protein. In this assay, HeLa cells were made to express a Notch protein lacking its extracellular domain (NotchΔE) fused to an N-terminal fragment of luciferase. The same cells also expressed a C-terminal fragment of luciferase fused to the immunoglobulin J kappa recombination signal sequence binding protein (RBP). Upon NotchΔE cleavage by gamma secretase, a Notch intracellular domain (NICD)-N terminal luciferase protein is generated which translocates to the nucleus and binds the RBP-C terminal luciferase fusion, bringing two independently nonfunctional halves of luciferase together to form a functional luciferase enzyme. The activity of luciferase in these cells is directly proportional to the amount of gamma secretase-cleaved Notch. Luciferase activity is determined by the standard techniques of luciferin addition to lysed cells and measurement of total luminescence.

[3] = biological target: T1, pregnane X receptor (PXR) (Homo sapiens, UniProt O75469); assay: PXR assay (CYP3A4-SEAP transactivation assay, PCSTA); settings: for EC50: HEP G2 cells
T1 construct: expressed in transfected cells; host or cells: HEP G2
T1 sequence (O75469 1-434): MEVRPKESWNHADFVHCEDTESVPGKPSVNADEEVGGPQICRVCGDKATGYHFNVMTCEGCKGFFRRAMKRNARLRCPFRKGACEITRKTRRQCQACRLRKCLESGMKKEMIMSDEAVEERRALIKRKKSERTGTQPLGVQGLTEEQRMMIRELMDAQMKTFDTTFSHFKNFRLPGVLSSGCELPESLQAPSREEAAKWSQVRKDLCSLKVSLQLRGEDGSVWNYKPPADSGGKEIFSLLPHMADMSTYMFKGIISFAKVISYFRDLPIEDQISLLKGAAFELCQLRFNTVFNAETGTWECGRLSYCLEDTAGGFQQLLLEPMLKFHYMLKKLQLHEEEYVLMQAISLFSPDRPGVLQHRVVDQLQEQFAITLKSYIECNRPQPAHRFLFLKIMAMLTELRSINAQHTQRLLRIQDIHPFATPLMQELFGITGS
T1 sequence (P19793 1-462 partner): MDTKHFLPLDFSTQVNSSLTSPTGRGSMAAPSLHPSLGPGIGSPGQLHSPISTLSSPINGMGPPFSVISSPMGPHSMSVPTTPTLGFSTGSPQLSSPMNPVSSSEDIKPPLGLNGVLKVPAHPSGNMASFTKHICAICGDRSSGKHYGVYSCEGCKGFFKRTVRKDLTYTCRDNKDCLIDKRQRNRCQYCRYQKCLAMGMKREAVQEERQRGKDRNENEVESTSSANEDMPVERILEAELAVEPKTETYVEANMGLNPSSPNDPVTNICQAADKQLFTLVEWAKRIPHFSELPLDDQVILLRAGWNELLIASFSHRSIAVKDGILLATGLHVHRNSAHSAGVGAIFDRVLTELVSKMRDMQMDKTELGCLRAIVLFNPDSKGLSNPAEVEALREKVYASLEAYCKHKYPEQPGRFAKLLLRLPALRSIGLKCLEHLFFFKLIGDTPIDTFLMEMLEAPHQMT
Text: The CYP3A4-SEAP transactivation assay (PCSTA) effectively and rapidly evaluates compounds for their potential to induce cytochrome P450 CYP3A (human CYP3A4 or rat CYP3A1). The reporter construct contains regulatory regions from the CYP3A4 gene positioned just upstream of a secreted alkaline phosphatase (SEAP) gene. The human PXR nuclear receptor has been modified at the 5′-end so that methionine is the initiating amino acid replacing leucine found in the wild-type sequence. HEP G2 cells are transfected with the PXR plasmid (human or rat) and the reporter plasmid. Read-out for the induction of CYP3A4 consists of a SEAP calorimetric assay with para-nitro-phenyl phosphate (pNPP) as the substrate. Five point dose-response curves in duplicate are then generated with each point corresponding to the rate of conversion of pNPP to pNP by SEAP. For the human PCSTA, rifampicin is used as the positive control and 100% induction is based upon the maximum induction produced by rifampicin at 10 μM.

[4] = tested on: Aβ42 peptides generated from SH-SY5Y cells expressing amyloid β protein (SP4CT cells); assay: APP processing AlphaLisa assay, secreted Aβ42; settings: average of at least >4 replicates, read-out: AB42 IC50 AVG
Protocol: as §1, §2

Row | IC50 ([1]; Homo sapiens, SH-SY5Y) [µM] | IC50 ([2]; Homo sapiens, HeLa) [µM] | EC50 [3] [µM] | IC50 ([4]; Homo sapiens, SH-SY5Y) [µM] | PXR % Activation @ 10 uM [3] [%] | IC50 [1] [µM] | IC50 [2] [µM] | IC50 [4] [µM] | SMILES
1 | 0.151 | 50 | 1.22 | 0.117 |  |  |  |  | O=S(=O)(N[C@H]1C[C@](c2cc(F)ccc2F)(S(=O)(=O)c2ccc(Cl)cc2)C1)C(F)(F)F [Example 1, N-[trans-3-[(4-chlorophenyl)sulfonyl]-3-(2,5-difluorophenyl)cyclobutyl]-1,1,1-trifluoromethanesulfonamide]
2 | 0.0701 | 3.21 | 0.714 | 0.0661 | 92.3 |  |  |  | N#Cc1ccc(F)cc1[C@]1(S(=O)(=O)c2ccc(Cl)cc2)C[C@@H](NS(=O)(=O)C(F)(F)F)C1 [Example 3, N-[cis-3-[(4-chlorophenyl)sulfonyl]-3-(2-cyano-5-fluorophenyl)cyclobutyl]-1,1,1-trifluoromethanesulfonamide]
3 | 0.0708 | 1.94 | 1.96 | 0.0782 | 70.7 |  |  |  | O=S(=O)(N[C@H]1C[C@@](c2cc(Cl)ccc2Cl)(S(=O)(=O)c2ccc(Cl)cc2)C1)C(F)(F)F [Example 4, N-[cis-3-[(4-chlorophenyl)sulfonyl]-3-(2,5-dichlorophenyl)cyclobutyl]-1,1,1-trifluoromethanesulfonamide]
4 | 0.1 | 3.81 | 5.2 | 0.0902 | 64.4 |  |  |  | O=S(=O)(NC1CC(c2cc(F)ccc2F)(S(=O)(=O)c2ccc(C(F)(F)F)cc2)C1)C(F)(F)F (stereo not drawn) [Example 5, N-(cis-3-(2,5-difluorophenyl)-3-{[4-(trifluoromethyl)phenyl]sulfonyl}cyclobutyl)-1,1,1-trifluoromethanesulfonamide]
5 | 0.13 | 5.65 | 1.99 | 0.106 | 79.2 |  |  |  | O=S(=O)(NC1CC(c2cc(Cl)ccc2F)(S(=O)(=O)c2ccc(Cl)cc2)C1)C(F)(F)F (stereo not drawn) [Example 6, N-{cis-3-(5-chloro-2-fluorophenyl)-3-[(4-chlorophenyl)sulfonyl]cyclobutyl}-1,1,1-trifluoromethanesulfonamide]
6 | 0.0684 | 3.08 | 0.766 | 0.0576 | 113.2 |  |  |  | O=S(=O)(NC1CC(c2cc(F)ccc2F)(S(=O)(=O)c2ccc(F)cc2)C1)C(F)(F)F (stereo not drawn) [Example 7, N-{cis-3-(2,5-difluorophenyl)-3-[(4-fluorophenyl)sulfonyl]cyclobutyl}-1,1,1-trifluoromethanesulfonamide]
7 | 0.0792 | 3.14 | 1.26 | 0.0628 | 82.3 |  |  |  | O=S(=O)(NC1CC(c2cc(F)ccc2F)(S(=O)(=O)c2ccc(F)c(F)c2)C1)C(F)(F)F (stereo not drawn) [Example 8, N-{cis-3-(2,5-difluorophenyl)-3-[(3,4-difluorophenyl)sulfonyl]cyclobutyl}-1,1,1-trifluoromethanesulfonamide]
8 | 0.261 | 8.9 | 8.36 | 0.231 | 54.9 |  |  |  | N#Cc1ccc(S(=O)(=O)C2(c3cc(F)ccc3F)CC(NS(=O)(=O)C(F)(F)F)C2)cc1 (stereo not drawn) [Example 9, N-[cis-3-[(4-cyanophenyl)sulfonyl]-3-(2,5-difluorophenyl)cyclobutyl]-1,1,1-trifluoromethanesulfonamide]
9 | 0.0352 | 8.31 | 1.24 | 0.0307 | 76.7 |  |  |  | O=C(O)CCCN([C@H]1C[C@@](c2cc(F)ccc2F)(S(=O)(=O)c2ccc(Cl)cc2)C1)S(=O)(=O)C(F)(F)F [Example 10, 4-{[cis-3-[(4-chlorophenyl)sulfonyl]-3-(2,5-difluorophenyl)cyclobutyl][(trifluoromethyl)sulfonyl]amino}butanoic acid]
10 | 0.0434 | 2.54 | 0.826 | 0.0369 | 86.5 |  |  |  | O=S(=O)(N(CCOC1CCCCO1)[C@H]1C[C@@](c2cc(F)ccc2F)(S(=O)(=O)c2ccc(Cl)cc2)C1)C(F)(F)F (stereo partly drawn) [Example 11, N-[cis-3-[(4-chlorophenyl)sulfonyl]-3-(2,5-difluorophenyl)cyclobutyl]-1,1,1-trifluoro-N-[2-(tetrahydro-2-pyran-2-yloxy)ethyl]methanesulfonamide]
11 | 0.0977 | 13.2 | 1.6 | 0.117 |  |  |  |  | COC(=O)CN([C@H]1C[C@@](c2cc(F)ccc2F)(S(=O)(=O)c2ccc(Cl)cc2)C1)S(=O)(=O)C(F)(F)F [Example 12, Methyl {[cis-3-[(4-chlorophenyl)sulfonyl]-3-(2,5-difluorophenyl)cyclobutyl][(trifluoromethyl)sulfonyl]amino}acetate]
12 |  |  | 1.26 |  |  | 0.0184 | 4.81 | 0.0189 | CN(C1CC(c2cc(F)ccc2F)(S(=O)(=O)c2ccc(Cl)cc2)C1)S(=O)(=O)C(F)(F)F (stereo not shown) [Example 13, N-[3-[(4-chlorophenyl)sulfonyl]-3-(2,5-difluorophenyl)cyclobutyl]-1,1,1-trifluoro-N-methylmethanesulfonamide]
13 |  |  | 0.829 |  |  | 0.0899 | 9.87 | 0.0971 | CN(C1CC(c2cc(F)ccc2F)(S(=O)(=O)c2ccc(Cl)cc2)C1)S(=O)(=O)C(F)(F)F (stereo not shown) [Example 14, N-[3-[(4-chlorophenyl)sulfonyl]-3-(2,5-difluorophenyl)cyclobutyl]-1,1,1-trifluoro-N-methylmethanesulfonamide]
14 | 0.0518 | 2.83 | 1.21 | 0.0518 |  |  |  |  | COC(=O)CCCN([C@H]1C[C@@](c2cc(F)ccc2F)(S(=O)(=O)c2ccc(Cl)cc2)C1)S(=O)(=O)C(F)(F)F [Example 15, methyl 4-{[cis-3-[(4-chlorophcnyl)sulfonyl]-3-(2,5-difluorophenyl)cyclobutyl][(trifluoromethyl)sulfonyl]amino}butanoate]
15 | 0.0967 | 32 | 1.01 | 0.0679 | 100 |  |  |  | O=C(O)CN([C@H]1C[C@@](c2cc(F)ccc2F)(S(=O)(=O)c2ccc(Cl)cc2)C1)S(=O)(=O)C(F)(F)F [Example 16, N-[cis-3-[(4-chlorophenyl)sulfonyl]-3-(2,5-difluorophenyl)cyclobutyl]-N-[(trifluoromethyl)sulfonyl]glycine]
